Test results reported in publication PMC11141866, “Pyrimidine depletion enhances targeted and immune therapy combinations in acute myeloid leukemia” (JCI Insight, 2024).
≈ marks a conversion by molar mass, not a printed value. Where “and” joins values, the source holds several entries; their conditions need not be identical. Equal values may be shown once. Read-outs that look alike come from different tables or passages of the source.

Columns and labels:
THP1 = assay: MTS proliferation assay, THP1; assay type: cell-based; conditions: Homo sapiens, THP-1; THP1, 96-hour treatment; read-out: IC50 (MTS proliferation)
Experimental: A total of 10,000–20,000 cells from different AML lines or 50,000–75,000 cells of primary AML blasts were treated in a 96-well plate for 72 hours or 96 hours at 37°C, 5% CO2. CellTiter 96 Aqueous MTS reagent (Promega) was added to cells followed by a 3-hour incubation at 37°C, 5% CO2. The absorbance was measured at 490 nm using DTX 880 plate reader, and the IC50 was calculated using GraphPad Prism.

[1] = HOSU-53 plasma exposure in MOLM-13 tumor-bearing mice; assay type: in vivo, NCG mice; conditions: per mouse; for AUC: NCG, mouse, plasma, po, read-out: HOSU-53 AUCall
Experimental: Male 8- to 12-week-old NCG mice were engrafted with 1 × 10^5 cells via tail vein i.v. injection. […] Figure 3B and Figure 4, A and B, share the same vehicle group. page 6: Plasma samples were obtained following appropriate dosing administration and saved in the -80°C freezer till the time of analysis. Analyses by LC-MS/MS followed sample extraction by protein precipitation and separation by Ultra Performance Liquid Chromatography (UPLC, Waters Corporation, MA, USA) using a C18 column, 1.7um, 2.1x50mm, Mobile Phase A: 5:95:0.1 (v:v:v) Acetonitrile:Water:Formic Acid, Mobile Phase B: 50:50:0.1 (v:v:v) Methanol:Acetonitrile:Formic Acid. MS/MS analyses were performed on an API-6500 (Absciex MA, USA) in positive mode using an electrospray source at 550°C. The internal standard was d4-AEA monitored at 352.2 and 66.0 m/z transitions and the target analyte, HOSU-53, was monitored at 416.5 and 331.1 m/z transitions. The assay was qualified between 10-5,000 ng/ml HOSU53 to be within ±20% for QCs above the LLOQ in this range and ±25% at the LLOQ. DHO concentration quantification in mouse plasma samples. Plasma samples were obtained following appropriate dosing administration and saved in the -80°C freezer till the time of analysis. Analyses by LC-MS/MS followed sample extraction by protein precipitation and separation by Ultra Performance Liquid Chromatography (UPLC, Waters Corporation, MA, USA) using a Phenomenex Aqua C18 100x4.6mm, 3uM, […], Mobile Phase A: 100:0.1 (v:v) Water:Formic Acid, Mobile Phase B: 100:0.1 (v:v) Methanol:Formic Acid. MS/MS analyses were performed on an API-4000 (Absciex MA, USA) in negative mode using an electrospray source at 550°C. The internal standard was labeled 13C14_L-Dihydroorotic Acid monitored at 161.3 and 117.1 m/z transitions and the target analyte, L-Dihydroorotic Acid (DHO), was monitored at 157.0 and 70.0 m/z transitions. The assay was qualified between 10.0-30,000 ng/ml DHO to be within ±20% for QCs above the LLOQ in this range and ±25% at the LLOQ.

[2] = system: primary AML patient sample; assay: Flow cytometry CD11b/CD14 differentiation, primary AML long-term culture; assay type: cell-based, human; conditions: 7 days LTC
Experimental: Cells were thawed in 50% FBS RPMI and then cultured in StemSpan (StemCell Technologies) media supplemented with human FLT3L, SCF, GM-CSF, G-CSF, IL-3, IL-6, TPO, and EPO cytokines for 7 days (LTC).
After 72 hours or 7 days of treatment of DHODHi, cells were collected and washed with PBS, blocked with human Fc block (BioLegend), and stained with antibodies for 30 minutes on ice. Antibodies were washed off and cells resuspended in FACS buffer (2% FBS, 2 mM NaN3, Dulbecco’s PBS) for analysis using BD LSRFortessa or Cytek Aurora spectral flow cytometer. Live/dead exclusion was done using LIVE/DEAD Fixable Near-IR (Invitrogen). All antibodies were purchased from BioLegend except CD47, which was purchased from BD Biosciences: CD11b clone M1/70, CD38 clone HIT2, CD14 clone M5E2, CD47 clone B6H12, CD33 clone WM53, CD3 clone UCHT1, CD19 clone HIB19, and CD45 clone HI30.
Supplemental Figure S.2. […] A).
Flow cytometry analysis of viable primary AML patient samples (n=10) treated in vitro for seven days (long term culture, LTC). Live cells were measured using LIVE/DEAD™ Fixable Near-IR (NIR) gated on singlet cells. […] Images were taken using BioTek Cytation 5 Cell Imaging Multimode Reader at 20x magnification. […]

Thermodynamic solubility = assay type: physicochemical; conditions: thermodynamic from solid
Source text: (§1) Supplement jciinsight-9-173646-s083.xlsx, sheet "Supplemental Table S.2." | column: HOSU-53

CYP 1A2 = CYP 1A2 (Homo sapiens, UniProt P05177); assay: CYP inhibition 1A2; assay type: in vitro ADME
Source text: as §1

CYP 2C9 = CYP 2C9 (Homo sapiens, UniProt P11712); assay: CYP inhibition 2C9; assay type: in vitro ADME
Source text: as §1

In vivo p.o. PK in rat = conditions: po
Source text: as §1

CYP 1A2, sequence (P05177 whole entry): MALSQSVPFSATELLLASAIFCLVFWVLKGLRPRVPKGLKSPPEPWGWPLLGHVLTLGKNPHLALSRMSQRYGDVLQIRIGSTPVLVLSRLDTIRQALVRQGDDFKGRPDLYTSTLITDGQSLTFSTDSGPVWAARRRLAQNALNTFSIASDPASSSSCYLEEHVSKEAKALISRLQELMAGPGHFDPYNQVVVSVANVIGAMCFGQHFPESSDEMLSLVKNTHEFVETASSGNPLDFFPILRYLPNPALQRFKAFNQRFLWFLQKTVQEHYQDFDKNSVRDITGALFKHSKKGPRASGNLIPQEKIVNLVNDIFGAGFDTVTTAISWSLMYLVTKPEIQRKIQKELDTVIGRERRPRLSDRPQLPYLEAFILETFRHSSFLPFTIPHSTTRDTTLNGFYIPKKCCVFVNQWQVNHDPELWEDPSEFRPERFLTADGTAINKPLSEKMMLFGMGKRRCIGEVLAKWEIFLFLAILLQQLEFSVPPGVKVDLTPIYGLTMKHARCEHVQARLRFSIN
CYP 2C9, sequence (P11712 whole entry): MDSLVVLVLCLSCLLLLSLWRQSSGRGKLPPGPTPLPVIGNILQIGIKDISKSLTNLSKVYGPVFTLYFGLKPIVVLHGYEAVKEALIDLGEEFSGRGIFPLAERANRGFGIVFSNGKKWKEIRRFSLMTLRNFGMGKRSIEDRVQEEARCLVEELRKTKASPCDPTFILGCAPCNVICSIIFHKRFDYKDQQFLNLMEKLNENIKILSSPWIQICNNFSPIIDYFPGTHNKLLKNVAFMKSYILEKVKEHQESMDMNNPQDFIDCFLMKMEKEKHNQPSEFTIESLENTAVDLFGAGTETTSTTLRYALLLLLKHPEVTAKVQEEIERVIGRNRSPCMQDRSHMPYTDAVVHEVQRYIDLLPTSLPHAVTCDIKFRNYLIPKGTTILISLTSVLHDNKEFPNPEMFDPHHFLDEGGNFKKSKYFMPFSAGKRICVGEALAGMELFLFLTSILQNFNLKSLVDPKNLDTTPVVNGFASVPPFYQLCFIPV

**Q.** For `CCCCOc1cccc(-c2ccc(-c3cc(C(=O)O)c4cc(F)ccc4n3)cc2)c1` [HOSU-53], which IC50 (THP1) is on record?
**A.** 50 nM

**Q.** And the “HOSU-53 AUCall” value ([1]; Day 1, 4 mpk PO, male mice, 4 mg/kg)?
**A.** 915.984 µM·h and 1069.99 µM·h

**Q.** And the “HOSU-53 AUCall” value ([1]; Day 1, 10 mpk PO, male mice, 10 mg/kg)?
**A.** 1989.31 µM·h and 1940.99 µM·h

**Q.** What about the “HOSU-53 AUCall” value ([1]; Day 1, 20 mpk PO, male mice, 20 mg/kg) of the same molecule?
**A.** 3244.97 µM·h and 3430.6 µM·h

**Q.** And the “HOSU-53 AUCall” value ([1]; Day 1, 30 mpk PO, male mice, 30 mg/kg)?
**A.** 5214.04 µM·h and 4142.06 µM·h

**Q.** What about the “HOSU-53 AUCall” value ([1]; Day 14, 4 mpk PO, male mice, 4 mg/kg) of the same molecule?
**A.** 2230.22 µM·h and 2019.88 µM·h

**Q.** And the “HOSU-53 AUCall” value ([1]; Day 14, 10 mpk PO, male mice, 10 mg/kg)?
**A.** 3666.3 µM·h and 3989.64 µM·h

**Q.** What about the “HOSU-53 AUCall” value ([1]; Day 14, 20 mpk PO, male mice, 20 mg/kg) of the same molecule?
**A.** 6180.8 µM·h and 5557.2 µM·h

**Q.** And the “HOSU-53 AUCall” value ([1]; Day 14, 30 mpk PO, male mice, 30 mg/kg)?
**A.** 7551.75 µM·h and 6154.9 µM·h

**Q.** What about the AUC ([1]; female, 10 mg/kg, Day 1, 10 mpk PO, female mice) of the same molecule?
**A.** 2830 µM·h

**Q.** And the AUC ([1]; female, 10 mg/kg, Day 14, 10 mpk PO, female mice)?
**A.** 3980 µM·h

**Q.** And the AUC ([1]; male, 4 mg/kg, Day 1, 4 mpk PO, male mice)?
**A.** 780 µM·h

**Q.** And the AUC ([1]; male, 4 mg/kg, Day 14, 4 mpk PO, male mice)?
**A.** 1930 µM·h

**Q.** What about the AUC ([1]; male, 10 mg/kg, Day 1, 10 mpk PO, male mice) of the same molecule?
**A.** 1890 µM·h

**Q.** And the AUC ([1]; male, 10 mg/kg, Day 14, 10 mpk PO, male mice)?
**A.** 3860 µM·h

**Q.** What about the AUC ([1]; male, 20 mg/kg, Day 1, 20 mpk PO, male mice) of the same molecule?
**A.** 3670 µM·h

**Q.** What about the AUC ([1]; male, 20 mg/kg, Day 14, 20 mpk PO, male mice) of the same molecule?
**A.** 5090 µM·h

**Q.** And the AUC ([1]; male, 30 mg/kg, Day 1, 30 mpk PO, male mice)?
**A.** 4470 µM·h

**Q.** What about the AUC ([1]; male, 30 mg/kg, Day 14, 30 mpk PO, male mice) of the same molecule?
**A.** 6660 µM·h

**Q.** What about the “CD11b+CD14+ cells” value [2] of the same molecule?
**A.** increased

**Q.** And the solubility thermodynamic (Thermodynamic solubility; FaSSIF, heading: Thermodynamic solubility FaSSIF)?
**A.** 43 µM (≈ 17.9 µg/mL)

**Q.** What about the solubility thermodynamic (Thermodynamic solubility; FeSSIF, heading: Thermodynamic solubility FeSSIF) of the same molecule?
**A.** 373 µM (≈ 155 µg/mL)

**Q.** And the solubility thermodynamic (Thermodynamic solubility; SGF, simulated gastric fluid, heading: Thermodynamic solubility SGF)?
**A.** < 1.56 µM

**Q.** And the IC50 (CYP 1A2)?
**A.** 19600 nM

**Q.** And the IC50 (CYP 2C9)?
**A.** 1160 nM

**Q.** And the bioavailability (In vivo p.o. PK in rat; read-out: in vivo p.o. bioavailability (F))?
**A.** 59%

**Q.** What about the half-life (In vivo p.o. PK in rat; read-out: in vivo p.o. t1/2 (converted)) of the same molecule?
**A.** 7.6 h
